# Source: patent US8710095B2, “Drugs for prophylaxis or mitigation of taxane-induced neurotoxicity” (Bionumerik Pharmaceuticals, Inc., priority 2002, dated 2014)
# Entries after “also recorded” stand apart in the source; their conditions may differ.
# Tests used:
# [1] = tested on: female Wistar rats; test: Paclitaxel-induced abnormal thermoesthesia, latent period for pseudo pain reactions (hot water bath 45° C.); assay type: in vivo, rat
# Description: Paclitaxel was intravenously administered at a dose of 6 mg/kg once daily to female Wistar rats (8 rats per group) (the initial dosage date was defined as day 0). Treatment was repeated five times every other day.
# The efficacy of 2,2′-dithiobis ethane sulfonate on the abnormal thermoesthesia occurring in response to the paclitaxel therapy was assessed using, as an index, a latent period for pseudo pain reactions. […] Each pseudo pain reaction-related latent period was measured on the day before the initial paclitaxel dosage (day −1, pretreatment), and daily for three days from the next day after the final paclitaxel dosage (from days 9 to 11, post-treatment), i.e., totally four times.
# 2,2′-dithiobis ethane sulfonate was, dissolved in water for injection to make its concentration 200 mg/ml upon use and the 2,2′-dithiobis ethane sulfonate solution thus prepared was intravenously administered at the dose of 500 mg/kg or 1,000 mg/kg immediately before the paclitaxel administration.
# [2] = tested on: patients in the Phase I studies (US & Japan); test: US & Japan Phase I studies overall, incidence of neurotoxicity; assay type: in vivo, human
# Description: Human clinical trials have been conducted in the United States, Europe and Japan regarding the safety and efficacy of the agents that make up this invention. These trials are ongoing. The following is a summary of the results obtained from early-stage (Phase 1) trials in the United States and Japan.
# (§1) The number and percentage of patients who reported neurotoxicity in the Phase I studies compared with historical control data are summarized on the next page. Severity grades were measured according to NCI-CTC standards.
# Overall, peripheral neuropathy, such as numbness, paresthesia or tingling, was reported in 54.5% of patients (30 patients, all severities) in the Phase I studies. The majority of neurotoxicity events experienced was mild in severity where 38.2% of patients (21 patients) reported Grade 1 neurotoxicity.
# [3] = tested on: patients with advanced solid tumors; test: Phase I study in the United States: 2,2′-dithiobis ethane sulfonate with paclitaxel and cisplatin, incidence of neurotoxicity; assay type: in vivo, human; settings: United States (n = 36), all doses 4.1 to 41.0 g/m^2
# Description: In the Phase I study in the United States, human patients in Stage I received the following treatment regimen every 3 weeks: a single dose of paclitaxel (175 mg/m^2) administered intravenously over 3 hours, pre-cisplatin saline hydration (1000 mL 0.9% NaCl) for 2 hours, followed immediately by a single dose of 2,2′-dithiobis ethane sulfonate (4.1, 8.2, 12.3, 18.4, 27.6 and 41.0 g/m^2, depending on cohort assignment) administered intravenously over 15 or 30 minutes, a single dose of cisplatin (75 mg/m^2) administered intravenously over 1 hour and subsequently post-cisplatin saline hydration (500 cc 0.9% NaCl) for 1 hour.
# A total of 36 patients (22 patients in Stage I and 14 patients in Stage II) with advanced solid tumors have been enrolled and treated in this study at two clinical sites in the United States. A total of 138 treatment courses of BNP7787 with chemotherapy were given to 36 patients giving an average number of 3.8 treatment cycles per patient. A total of 13 patients (36.1%) completed at least five treatment cycles while 5 patients (13.9%) completed at least seven treatment cycles.
# as §1
# [4] = tested on: cancer patients; test: Individual patient cases (Examples 2 to 7): BNP7787 with paclitaxel and cisplatin; assay type: in vivo, human; settings: for tumor response: with paclitaxel and cisplatin; for peripheral neurotoxicity: 3 cycles
# Description: A patient with adenocarcinoma of unknown origin presented with a pituitary mass and supraclavicular and mediastinal lymph nodes. They received the following treatment regimen every 3 weeks: a single dose of paclitaxel (175 mg/m^2) administered IV over 3 hours, pre-cisplatin saline hydration (500 mL 0.9% NaCl) for 1 hour, a single dose of BNP7787 (18.4 g/m^2) administered IV over 15 minutes, immediately followed by a single dose of cisplatin (75 mg/m^2) administered IV over 1 hour and subsequently post-cisplatin saline hydration (250 mL 0.9% NaCl) for 30 minutes. The patient received a total of six cycles of study treatment and experienced peripheral neuropathy (NCI-CTC Grade 2) during Cycles 4 through 6.
# A patient with adenocarcinoma of gastric origin received the following treatment regimen every 3 weeks: a single dose of paclitaxel (175 mg/m^2) administered IV over 3 hours, pre-cisplatin saline hydration (500 mL 0.9% NaCl) for 1 hour, a single dose of BNP7787 (18.4 g/m^2) administered IV over 15 minutes, immediately followed by a single dose of cisplatin (75 mg/m^2) administered IV over 1 hour and subsequently post-cisplatin saline hydration (250 mL 0.9% NaCl) for 30 minutes.
# A patient with adenocarcinoma of unknown origin presented with retroperitoneal and lung masses. They received the following treatment regimen every 3 weeks: a single dose of paclitaxel (175 mg/m^2) administered IV over 3 hours, pre-cisplatin saline hydration (250 mL 0.9% NaCl) for 30 minutes, a single dose of BNP7787 (18.4 g/m^2) administered IV over 15 minutes, immediately followed by a single dose of cisplatin (75 mg/m^2) administered IV over 1 hour and subsequently post-cisplatin saline hydration (250 mL 0.9% NaCl) for 30 minutes. The patient received a total of six cycles of study treatment and experienced Grade 1 numbness and tingling (peripheral neuropathy) beginning Day 2 of Cycle 1 which resolved on Day 5. The patient again experienced Grade 1 peripheral neuropathy during Cycle 4.
# (§2) A patient with adenocarcinoma of the lung received the following treatment regimen every 3 weeks: a single dose of paclitaxel (175 mg/m^2) administered IV over 3 hours, pre-cisplatin saline hydration for 1 hour, immediately followed by a single dose of BNP7787 (18.4 g/m^2) administered IV over 30 minutes, a single dose of cisplatin (75 mg/m^2) administered IV over 1 hour and subsequently post-cisplatin saline hydration for 1.5 hours.
# as §2, with “hours. The patient received a total of 3 cycles of study treatment and experienced Grade 1 peripheral neurotoxicity beginning on Day 6 of Cycle 3, which resolved on Day 20 of Cycle 3.” for “hours.”
# as §2, with “large cell carcinoma” for “adenocarcinoma”, “hours. The patient received a total of 3 cycles of study treatment and experienced Grade 1 peripheral neurotoxicity beginning on Day 5 of Cycle 2.” for “hours.”
# [5] = tested on: patients with advanced Non-Small Cell Lung Cancer (NSCLC); test: Phase I study in Japan: 2,2′-dithiobis ethane sulfonate with paclitaxel and cisplatin, incidence of neurotoxicity; assay type: in vivo, human; settings: Japan (NSCLC) (n = 19), all doses 4.1 to 41.0 g/m^2
# Description: In the Phase I study in Japan, patients received the following treatment regimen every 3 weeks: a single dose of paclitaxel (175 mg/m^2) administered intravenously over 3 hours, pre-cisplatin saline hydration for 1 hour, immediately followed by a single dose of 2,2′-dithiobis ethane sulfonate (4.1, 8.2, 12.3, 18.4, 27.6 and 41.0 g/m^2, depending on cohort assignment) administered intravenously over 30 minutes, a single dose of cisplatin (75 mg/m^2) administered intravenously over 1 hour and subsequently post-cisplatin saline hydration for 1.5 hours.
# A total of 19 patients with advanced Non-Small Cell Lung Cancer (NSCLC) have been enrolled and treated in this study at four clinical sites in Japan. Each patient was to receive a total of three treatment cycles during this study. A total of 43 treatment courses of 2,2′-dithiobis ethane sulfonate with chemotherapy were given to 19 patients giving an average of 2.3 treatment cycles per patient. A total of 11 patients (57.9%) completed all three treatment cycles while 8 patients (42.1%) discontinued therapy prior to completing the three treatment cycles.
# as §1
# [6] = Overall (US & Japan) (n = 55), all doses 4.1 to 41.0 g/m^2, with paclitaxel and cisplatin
# [7] = Phase I studies US & Japan, with paclitaxel and cisplatin
smiles,measurement,setting,value
"CC(=O)O[C@H]1C(=O)[C@@]2(C)[C@H]([C@H](OC(=O)c3ccccc3)[C@]3(O)C[C@H](OC(=O)[C@H](O)[C@@H](NC(=O)c4ccccc4)c4ccccc4)C(C)=C1C3(C)C)[C@]1(OC(C)=O)CO[C@@H]1C[C@@H]2O [Paclitaxel, paclitaxel, reference compound]",latent period,"[1]; paclitaxel alone, day 9 post-treatment",18.9 ± 1.4 s
same,latent period,"[1]; paclitaxel alone, day 10 post-treatment",19.9 ± 2.2 s
same,latent period,"[1]; paclitaxel alone, day 11 post-treatment",19.4 ± 2.4 s
same,latent periods compared with control groups,"[1]; paclitaxel alone, p<0.01, student's t-test or Man-Whitney U-test",significantly elongated
same,latent period,"[1]; paclitaxel alone, prior to the initiation of paclitaxel administration (pretreatment)",9.4 ± 1.0 s
"O=S(=O)([O-])CCSSCCS(=O)(=O)[O-].[Na+].[Na+] [2,2′-dithiobis ethane sulfonate]","Incidence of neurotoxicity, Neurotoxicity Grade (NCI-CTC) 1",[2]; [6],21 (38.2) Number (%) of Patients
same,"Incidence of neurotoxicity, Neurotoxicity Grade (NCI-CTC) 2",[2]; [6],9 (16.4) Number (%) of Patients
same,"Incidence of neurotoxicity, Neurotoxicity Grade (NCI-CTC) 3",[2]; [6],0 (0.0) Number (%) of Patients
same,"Incidence of neurotoxicity, Neurotoxicity Grade (NCI-CTC) 4",[2]; [6],0 (0.0) Number (%) of Patients
same,"Incidence of neurotoxicity, Neurotoxicity Grade (NCI-CTC) ≧2",[2]; [6],9 (16.4) Number (%) of Patients
same,"Incidence of neurotoxicity, Overall (all grades)",[2]; [6],30 (54.5) Number (%) of Patients
same,incidence of moderate to severe (≧Grade 2) neurotoxicity,[2]; [7],16.4%
same,"overall incidence of neurotoxicity (peripheral neuropathy, all severities), patients",[2]; [7],54.5%
same,patients who reported Grade 1 neurotoxicity,[2]; [7],38.2%
same,patients who reported Grade 2 peripheral neuropathy,[2]; [7],16.4%
same,Grade 3 or 4 neurotoxicity,"[2]; Phase I studies, including patients who received up to 9 cycles of chemotherapy",No patient experienced Grade 3 or 4 neurotoxicity
same,peripheral neuropathy as dose limiting toxicity,[2]; administered concurrently with paclitaxel and cisplatin chemotherapy,not a dose limiting toxicity
same,effect on incidence of neurotoxicity versus historical control,[2]; concurrent administration with cisplatin and paclitaxel chemotherapy,decreases the incidence of neurotoxicity
same,"Incidence of neurotoxicity, Neurotoxicity Grade (NCI-CTC) 1",[3],8 (22.2) Number (%) of Patients
same,"Incidence of neurotoxicity, Neurotoxicity Grade (NCI-CTC) 2",[3],8 (22.2) Number (%) of Patients
same,"Incidence of neurotoxicity, Neurotoxicity Grade (NCI-CTC) 3",[3],0 (0.0) Number (%) of Patients
same,"Incidence of neurotoxicity, Neurotoxicity Grade (NCI-CTC) 4",[3],0 (0.0) Number (%) of Patients
same,"Incidence of neurotoxicity, Neurotoxicity Grade (NCI-CTC) ≧2",[3],8 (22.2) Number (%) of Patients
same,"Incidence of neurotoxicity, Overall (all grades)",[3],16 (44.0) Number (%) of Patients
same,tumor response,"[4]; Example 2: after Cycle 2, confirmed after Cycles 4 and 6",complete response
same,peripheral neuropathy (NCI-CTC),"[4]; Example 2: person, adenocarcinoma of unknown origin, 18.4 g/m^2, six cycles, during Cycles 4 through 6",Grade 2
same,peripheral neuropathy,"[4]; Example 3: person, adenocarcinoma of gastric origin, 18.4 g/m^2, five cycles",no peripheral neuropathy
same,tumor response,"[4]; Example 3: stable Cycles 2 through 4, progression following Cycle 5, listed as BNP7787",stable disease; also recorded: progressive disease
same,tumor response,"[4]; Example 4: partial after Cycle 2, complete after Cycle 6, listed as BNP7787",partial response; also recorded: complete response
same,peripheral neuropathy (numbness and tingling),"[4]; Example 4: person, adenocarcinoma of unknown origin, 18.4 g/m^2, six cycles, Cycle 1 Day 2 to 5 and Cycle 4",Grade 1
same,tumor response,[4]; Example 5: after Cycles 2 and 3,partial response
same,peripheral neurotoxicity,"[4]; Example 5: person, adenocarcinoma of the lung, 18.4 g/m^2",no peripheral neurotoxicity
same,tumor response,[4]; Example 6: after Cycles 2 and 3,partial response
same,peripheral neurotoxicity,"[4]; Example 6: person, adenocarcinoma of the lung, 18.4 g/m^2, Day 6 to Day 20 of Cycle 3",Grade 1
same,peripheral neurotoxicity,"[4]; Example 7: person, large cell carcinoma of the lung, 18.4 g/m^2, beginning Day 5 of Cycle 2",Grade 1
same,tumor response,[4]; Example 7,stable disease
same,Inhibition Rate (of latent period elongation),"[1]; 500 mg/kg iv with paclitaxel 6 mg/kg, Day 9",(17.8) %
same,Inhibition Rate (of latent period elongation),"[1]; 500 mg/kg iv with paclitaxel 6 mg/kg, Day 10",(18.0) %
same,Inhibition Rate (of latent period elongation),"[1]; 500 mg/kg iv with paclitaxel 6 mg/kg, Day 11",(19.4) %
same,Inhibition Rate (of latent period elongation),"[1]; 1,000 mg/kg iv with paclitaxel 6 mg/kg, Day 9",(43.3) %
same,Inhibition Rate (of latent period elongation),"[1]; 1,000 mg/kg iv with paclitaxel 6 mg/kg, Day 10",(38.0) %
same,Inhibition Rate (of latent period elongation),"[1]; 1,000 mg/kg iv with paclitaxel 6 mg/kg, Day 11",(51.0) %
same,effect on elongation of the latent period,"[1]; 1000 mg/kg, day 9, p<0.05, Dunnet test",significant suppressing effects
same,effect on latent period,[1]; groups receiving 500 mg/kg or 1000 mg/kg in advance of paclitaxel,suppressing tendency as a whole
same,effect on paclitaxel-induced abnormal thermoesthesia,[1]; overall conclusion of Example 1,mitigates effectively
same,"Incidence of neurotoxicity, Neurotoxicity Grade (NCI-CTC) 1",[5],13 (68.4) Number (%) of Patients
same,"Incidence of neurotoxicity, Neurotoxicity Grade (NCI-CTC) 2",[5],1 (5.2) Number (%) of Patients
same,"Incidence of neurotoxicity, Neurotoxicity Grade (NCI-CTC) 3",[5],0 (0.0) Number (%) of Patients
same,"Incidence of neurotoxicity, Neurotoxicity Grade (NCI-CTC) 4",[5],0 (0.0) Number (%) of Patients
same,"Incidence of neurotoxicity, Neurotoxicity Grade (NCI-CTC) ≧2",[5],1 (5.2) Number (%) of Patients
same,"Incidence of neurotoxicity, Overall (all grades)",[5],14 (73.6) Number (%) of Patients
